In the assay the target is human orexin type 2 receptor (hOX2R) (Homo sapiens (Human), UniProt O43614). The assay is described as follows: Measurement of orexin type 2 receptor agonist activity (Experimental Example 2-1, FLIPR TETRA, intracellular Ca2+). It is filed as cell-based. Particulars: CHO dhfr- cells expressing hOX2R; for Emax: read-out: Emax (%); for Emax at 30 µM: value at 30 uM concentration, orexin B as full agonist = 100%. An excerpt:
To obtain a cell clone stably expressing human orexin type 2 receptor, human orexin type 2 receptor cDNA was inserted into pcDNA3.1(+) plasmid vector (Invitrogen), and a plasmid DNA for expression of human orexin type 2 receptor (pcDNA3.1(+)/hOX2R) was cloned. The plasmid DNA was introduced into CHO-dhfr cell by an electroporation method, and human orexin type 2 receptor expressing clone cells were obtained by limiting dilution method by using G418 drug resistance as a selection marker.
Chinese hamster ovary (CHO) dhfr-cells forcibly expressing human orexin type 2 receptor (hOX2R) were seeded in each well of Black clear bottom plate (384 wells) (Becton, Dickinson and Company) by 10,000 cells, and cultured for 16 hr in an MEM-alpha (Nikken-Bio Co., Ltd.) medium containing 100 U/ml penicillin, 100 μg/ml streptomycin, […] G418 (all above Invitrogen), and 10% fetal calf serum (Thermo), under the conditions of 37° C., 5% CO2. […] A test compound was dissolved in dimethyl sulfoxide to 10 mM, and then diluted with assay buffer 2 (20 mM HEPES, Hanks' balanced salt solution (Invitrogen), 0.1% bovine serum albumin). For the reaction, a test compound solution (10 μL) was added using Fluorescent Imaging Plate Reader TETRA (FLIPR TETRA; manufactured by Molecular Devices), a fluorescence value (excitation wavelength 488 nm, measurement wavelength 570 nm) of each well was measured every one second for 1 min, and the agonist activity was determined using the area of the fluorescence value as an indicator of intracellular Ca^2+ concentration.

Where [1] appears, read: agonist activity, 10 nM human orexin B = 100%.

Chain of human orexin type 2 receptor (hOX2R) (O43614 whole entry): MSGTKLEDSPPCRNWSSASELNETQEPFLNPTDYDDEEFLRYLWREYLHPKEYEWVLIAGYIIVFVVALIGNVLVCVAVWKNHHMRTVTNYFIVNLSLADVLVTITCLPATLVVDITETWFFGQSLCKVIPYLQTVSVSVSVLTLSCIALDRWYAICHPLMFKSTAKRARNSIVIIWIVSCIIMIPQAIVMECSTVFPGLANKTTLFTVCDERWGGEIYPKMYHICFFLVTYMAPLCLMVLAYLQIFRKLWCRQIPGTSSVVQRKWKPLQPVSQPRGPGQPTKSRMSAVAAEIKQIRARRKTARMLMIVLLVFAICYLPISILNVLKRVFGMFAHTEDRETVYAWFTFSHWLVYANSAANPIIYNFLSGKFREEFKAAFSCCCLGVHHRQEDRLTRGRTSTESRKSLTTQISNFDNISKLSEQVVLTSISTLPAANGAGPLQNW

As to `CS(=O)(=O)N[C@H]1CCCN(C(=O)C2CCC(F)(F)CC2)[C@H]1COC1CCN(c2ccccc2F)CC1` (relative stereo) [Example 238, N-(cis-1-((4,4-difluorocyclohexyl)carbonyl)-2-(((1-(2-fluorophenyl)piperidin-4-yl)oxy)methyl)piperidin-3-yl)methanesulfonamide], where the note is “FLIPR TETRA, Fluo-4AM”, the midpoint of the response, the EC50, lay at 2100 nM and the Emax is 91%.
As to `CC(=O)N1CCC[C@H](NS(C)(=O)=O)[C@@H]1CO[C@H]1CC[C@@H](c2c(F)ccc(F)c2F)CC1` [Example 22, N-((2R,3S)-1-acetyl-2-(((cis-4-(2,3,6-trifluorophenyl)cyclohexyl)oxy)methyl)piperidin-3-yl)methanesulfonamide], the maximal effect (Emax) at 30 µM was 98%. For the same molecule, under setting [1], the EC50 was determined as 5.3 nM.
For the molecule `CCNC(=O)N1CCC[C@H](NS(C)(=O)=O)[C@@H]1CO[C@H]1C[C@H](c2ccccc2)C1` (relative stereo) [Example 130, cis-N-ethyl-3-((methylsulfonyl)amino)-2-(((trans-3-phenylcyclobutyl)oxy)methyl)piperidine-1-carboxamide], where the note is “FLIPR TETRA, Fluo-4AM”, the half-maximal effective concentration (EC50) was 460 nM and the Emax is 96%.
Regarding `CS(=O)(=O)N[C@H]1CCCN(C(=O)C2CC2)[C@H]1CO[C@H]1CC[C@@H](c2cc(F)ccc2F)CC1` [Example 214, N-((2R,3S)-1-(cyclopropylcarbonyl)-2-(((cis-4-(2,5-difluorophenyl)cyclohexyl)oxy)methyl)piperidin-3-yl)methanesulfonamide], under “FLIPR TETRA, Fluo-4AM”, the 50% effective concentration (EC50) was found to be 1.5 nM and the maximum response (Emax) amounted to 105%.
As to `CN(C)CC(=O)N1CCC[C@H](NS(C)(=O)=O)[C@@H]1CO[C@H]1CC[C@@H](c2ccccc2)CC1` (relative stereo) [Example 133, N-(cis-1-(N,N-dimethylglycyl)-2-(((cis-4-phenylcyclohexyl)oxy)methyl)piperidin-3-yl)methanesulfonamide], for the setting “FLIPR TETRA, Fluo-4AM”, the EC50 was 1000 nM and the Emax is 97%.
For the molecule `COC(=O)N1CCC[C@H](NS(C)(=O)=O)[C@@H]1COC1CCN(c2c(Cl)cccc2Cl)CC1` (relative stereo) [Example 186, methyl cis-2-(((1-(2,6-dichlorophenyl)piperidin-4-yl)oxy)methyl)-3-((methylsulfonyl)amino)piperidine-1-carboxylate], where the note is “FLIPR TETRA, Fluo-4AM”, the EC50 was 3300 nM and the maximal response (Emax) stood at 86%.
As for `CS(=O)(=O)N[C@H]1CCCN(C(=O)[C@@H]2C[C@@H]2F)[C@H]1COC1CCN(c2ccccc2F)CC1` [Example 221, N-(cis-1-(((1S,2S)-2-fluorocyclopropyl)carbonyl)-2-(((1-(2-fluorophenyl)piperidin-4-yl)oxy)methyl)piperidin-3-yl)methanesulfonamide], where the note is “FLIPR TETRA, Fluo-4AM”, the concentration giving a half-maximal response (EC50) is 1600 nM and the maximum response (Emax) stood at 96%.
Turning to `CC(C)(O)C(=O)N1CCC[C@H](NS(C)(=O)=O)[C@@H]1CO[C@H]1CC[C@@H](c2ccccc2)CC1` (relative stereo) [Example 189, N-(cis-1-(2-hydroxy-2-methylpropanoyl)-2-(((cis-4-phenylcyclohexyl)oxy)methyl)piperidin-3-yl)methanesulfonamide], where the note is “FLIPR TETRA, Fluo-4AM”, the EC50 was 78 nM and the maximal effect (Emax) was 88%.
Turning to `CS(=O)(=O)N[C@H]1CCCN(C(=O)NCC#N)[C@H]1CO[C@H]1CC[C@@H](c2ccccc2)CC1` (relative stereo) [Example 179, cis-N-(cyanomethyl)-3-((methylsulfonyl)amino)-2-(((cis-4-phenylcyclohexyl)oxy)methyl)piperidine-1-carboxamide], where the note is “FLIPR TETRA, Fluo-4AM”, a half-maximal response (EC50) required 0.31 nM and the Emax is 100%.
The matching figures for `CC(=O)N1CCC[C@H](NS(C)(=O)=O)[C@@H]1CO[C@H]1CC[C@@H](c2cccc(C(F)(F)F)c2)CC1` (relative stereo) [Example 204, N-(cis-1-acetyl-2-(((cis-4-(3-(trifluoromethyl)phenyl)cyclohexyl)oxy)methyl)piperidin-3-yl)methanesulfonamide]: 710 nM and 102%.
On to `CCNC(=O)N1CCC[C@H](NS(C)(=O)=O)[C@@H]1COC1CCN(c2ccccc2)CC1` (relative stereo) [Example 123, cis-N-ethyl-3-((methylsulfonyl)amino)-2-(((1-phenylpiperidin-4-yl)oxy)methyl)piperidine-1-carboxamide], for which, for the setting “FLIPR TETRA, Fluo-4AM”, the 50% effective concentration (EC50) is 390 nM and the Emax amounted to 120%.
For the molecule `CCc1ccccc1[C@H]1CC[C@@H](OC[C@@H]2NCCC[C@@H]2NS(C)(=O)=O)CC1` (relative stereo) [Example 311, N-(cis-2-(((cis-4-(2-ethylphenyl)cyclohexyl)oxy)methyl)-piperidin-3-yl)methanesulfonamide], where the note is “FLIPR TETRA, Fluo-4AM”, the half-maximal effective concentration (EC50) turned out to be 3200 nM and the Emax is 98%.
In the case of `CC(=O)N1CCC[C@H](NS(C)(=O)=O)[C@@H]1CO[C@H]1CC[C@@H](c2cc(F)ccc2F)CC1` [Example 217, N-((2R,3S)-1-acetyl-2-(((cis-4-(2,5-difluorophenyl)cyclohexyl)oxy)methyl)piperidin-3-yl)methanesulfonamide], under “FLIPR TETRA, Fluo-4AM”, the response was half-maximal at 13 nM (EC50) and the “Emax (%)” value came to 110%.
On to `CS(=O)(=O)N[C@H]1CCCN(C(=O)C2CCCCC2)[C@H]1COC1CCN(c2ncccn2)CC1` (relative stereo) [Example 208, N-(cis-1-(cyclohexylcarbonyl)-2-(((1-(pyrimidin-2-yl)piperidin-4-yl)oxy)methyl)piperidin-3-yl)methanesulfonamide], for which, under “FLIPR TETRA, Fluo-4AM”, the midpoint of the response, the EC50, lay at 940 nM and the maximal response (Emax) amounted to 93%.
As to `CC(=O)N1CCC[C@H](NS(C)(=O)=O)[C@@H]1CO[C@H]1CC[C@@H](c2ccccc2C(F)(F)F)CC1` [Example 24, N-((2R,3S)-1-acetyl-2-(((cis-4-(2-(trifluoromethyl)phenyl)cyclohexyl)oxy)methyl)piperidin-3-yl)methanesulfonamide], the maximal effect (Emax) at 30 µM amounted to 102%. Moreover, under setting [1], the response was half-maximal at 21 nM (EC50).
The like results for `CC(=O)N1CCC[C@H](NS(C)(=O)=O)[C@@H]1CO[C@H]1C[C@@H](c2ccccc2)C1` (relative stereo) [Example 114, N-(cis-1-acetyl-2-(((cis-3-phenylcyclobutyl)oxy)methyl)-piperidin-3-yl)methanesulfonamidea] were, in that order, 79% and 3500 nM.
With `CC1(C)CCC(C(=O)N2CCC[C@H](NS(C)(=O)=O)[C@@H]2COC2CCN(c3ncccn3)CC2)CC1` (relative stereo) [Example 210, N-(cis-1-((4,4-dimethylcyclohexyl)carbonyl)-2-(((1-(pyrimidin-2-yl)piperidin-4-yl)oxy)methyl)piperidin-3-yl)methanesulfonamide], where the note is “FLIPR TETRA, Fluo-4AM”, the EC50 was determined as 3600 nM and the maximal effect (Emax) was 86%.
`CC(C)[C@H]1CC[C@@H](OC[C@H]2[C@@H](NS(C)(=O)=O)CCCN2C(=O)C2CC(=O)C2)CC1` [Example 91, N-((2R,3S)-2-(((cis-4-isopropylcyclohexyl)oxy)methyl)-1-((3-oxocyclobutyl)carbonyl)piperidin-3-yl)methanesulfonamide] came in with an Emax at 30 µM of 89%. The molecule also came in with an EC50 under setting [1] of 39 nM.
As to `CC(C)[C@H]1CC[C@@H](OC[C@H]2[C@@H](NS(C)(=O)=O)CCCN2C(=O)C2CN(S(C)(=O)=O)C2)CC1` (relative stereo) [Example 90, N-(cis-2-(((cis-4-isopropylcyclohexyl)oxy)methyl)-1-((1-(methylsulfonyl)azetidin-3-yl)carbonyl)piperidin-3-yl)methanesulfonamide], the Emax at 30 µM amounted to 74%. For the same molecule, the EC50 under setting [1] is 2800 nM.
The matching figures for `CCNC(=O)N1CCC[C@H](NS(C)(=O)=O)[C@@H]1COC1CCN(c2ncccn2)CC1` (relative stereo) [Example 118, cis-N-ethyl-3-((methylsulfonyl)amino)-2-(((1-(pyrimidin-2-yl)piperidin-4-yl)oxy)methyl)piperidine-1-carboxamide]: 105% and 4.6 nM.
On to `CCNC(=O)N1CCC[C@H](NS(C)(=O)=O)[C@@H]1CO[C@H]1CC[C@@H](c2cnn(C)c2)CC1` (relative stereo) [Example 137, cis-N-ethyl-2-(((cis-4-(1-methyl-1H-pyrazol-4-yl)cyclohexyl)oxy)methyl)-3-((methylsulfonyl)amino)piperidine-1-carboxamide], for which, for the setting “FLIPR TETRA, Fluo-4AM”, the concentration giving a half-maximal response (EC50) stood at 240 nM and the maximum response (Emax) was determined as 101%.
The matching figures for `CCNC(=O)N1CCC[C@H](NS(C)(=O)=O)[C@@H]1COC1CCN(c2ccccc2F)CC1` (relative stereo) [Example 195, cis-N-ethyl-2-(((1-(2-fluorophenyl)piperidin-4-yl)oxy)methyl)-3-((methylsulfonyl)amino)piperidine-1-carboxamide]: 250 nM and 102%.
For the molecule `CS(=O)(=O)N[C@H]1CCCN[C@H]1CO[C@H]1CC[C@@H](c2ccccc2F)CC1` [Example 260, N-((2R,3S)-2-(((cis-4-(2-fluorophenyl)cyclohexyl)oxy)methyl)piperidin-3-yl)methanesulfonamide], under “FLIPR TETRA, Fluo-4AM”, the EC50 was 550 nM and the Emax was 99%.

As usually defined, the EC50 is the concentration that produces a half-maximal response. High values mean weaker potency, low ones greater potency. The term Emax denotes the maximal effect, on the per cent scale that the assay sets.
